Test results as given in patent publication US5409933A, “Quinoline derivatives and processes for preparing the same” (priority 1993, dated 1995).
Structures can show the parent of a compound that is named as a salt. Where two headings read alike, the source gives them in different places.

Assays:
Experiment in all cases: In Vitro Anti-Bacterial Activity Test (MIC, agar dilution)
Format in all cases: cell-based
[1] = system: Klebsiella oxytoca 1082E
Protocol: (§1) The above in vitro antibacterial activity test was carried out in accordance with the agar culture medium dilution method (Hoechst 345) by using Muller-Hinton agar medium to determine the minimum inhibitory concentration (MIC).
(§2) The strains having 10^7 C.F.U./ml were inoculated on the culture medium, and the growth of the strains was observed after incubating them at 37° C. for 18 hours, in which ciprofloxacin was used as a control antibacterial agent. In this test, twenty typical strains were used.

[2] = system: Escherichia coli 1507E; conditions: Muller-Hinton agar, 37° C.
Protocol: as §1, §2

[3] = system: Salmonella typhimurium; conditions: Salmonella enterica; Salmonella typhimurium; Muller-Hinton agar, 37° C., 18 hours; read-out: MIC
Protocol: as §1, §2

[4] = system: Escherichia coli DC0; conditions: Muller-Hinton agar, 37° C., 18 hours, read-out: MIC
Protocol: as §1, §2

[5] = system: Pseudomonas aeruginosa 9027; conditions: Muller-Hinton agar, 37° C., 18 hours, read-out: MIC
Protocol: as §1, §2

[6] = system: Pseudomonas aeruginosa 1592E; conditions: Muller-Hinton agar, 37° C., 18 hours, read-out: MIC
Protocol: as §1, §2

[7] = system: Pseudomonas aeruginosa 1771; conditions: Pseudomonas aeruginosa 1771; Muller-Hinton agar, 37° C., 18 hours; read-out: MIC
Protocol: as §1, §2

[8] = system: Escherichia coli TEM; conditions: Escherichia coli, 18 h, Muller-Hinton agar, 37° C.
Protocol: as §1, §2

[9] = system: Klebsiella aerogenes 1522E; conditions: Klebsiella aerogenes, 1522E, 18 h
Protocol: as §1, §2

[10] = system: Streptococcus faecium MD8b; conditions: Enterococcus faecium, Muller-Hinton agar, 37° C., 18 hours, read-out: MIC
Protocol: as §1, §2

[11] = system: Staphylococcus aureus 285; conditions: Staphylococcus aureus, 285, 18 h, Staphylococcus aureus 285; Muller-Hinton agar, 37° C., 18 hours; read-out: MIC
Protocol: as §1, §2

[12] = system: Staphylococcus aureus 503; conditions: Staphylococcus aureus 503; Muller-Hinton agar, 37° C., 18 hours; read-out: MIC
Protocol: as §1, §2

[13] = system: Pseudomonas aeruginosa 1771M; conditions: Pseudomonas aeruginosa, 1771M, 18 h, Muller-Hinton agar, 37° C.
Protocol: as §1, §2

[14] = system: Enterobacter cloacae P99; conditions: Enterobacter cloacae, P99, 18 h
Protocol: as §1, §2

[15] = system: Streptococcus pyogenes 77A
Protocol: as §1, §2

[16] = system: Escherichia coli DC2; conditions: Escherichia coli, DC2, 18 h
Protocol: as §1, §2

[17] = system: Escherichia coli 078
Protocol: as §1, §2

[18] = system: Enterobacter cloacae 1321E; conditions: Enterobacter cloacae 1321E; Muller-Hinton agar, 37° C., 18 hours; read-out: MIC
Protocol: as §1, §2

[19] = system: Streptococcus pyogenes 308A; conditions: Muller-Hinton agar, 37° C., 18 hours, read-out: MIC
Protocol: as §1, §2

[20] = system: Staphylococcus aureus SG511; conditions: Staphylococcus aureus SG511; Muller-Hinton agar, 37° C., 18 hours; read-out: MIC
Protocol: as §1, §2

[21] = Klebsiella oxytoca 1082E, Muller-Hinton agar, 37° C., 18 hours, read-out: MIC
[22] = Klebsiella aerogenes 1522E, Muller-Hinton agar, 37° C., 18 hours, read-out: MIC
[23] = Streptococcus pyogenes 77A, Muller-Hinton agar, 37° C., 18 hours, read-out: MIC
[24] = Escherichia coli 078, Muller-Hinton agar, 37° C., 18 hours, read-out: MIC

SMILES	MIC [1, 21] [µg/mL]	MIC ([2]; Escherichia coli, 1507E, 18 h) [µg/mL]	MIC [3] [µg/mL]	MIC [4] [µg/mL]	MIC [5] [µg/mL]	MIC [6] [µg/mL]	MIC [7] [µg/mL]	MIC [8] [µg/mL]	MIC [9, 22] [µg/mL]	MIC [10] [µg/mL]	MIC [11] [µg/mL]	MIC [12] [µg/mL]	MIC [13] [µg/mL]	MIC [14] [µg/mL]	MIC [15, 23] [µg/mL]	MIC [16] [µg/mL]	MIC ([17]; Escherichia coli, 078, 18 h) [µg/mL]	MIC [18] [µg/mL]	MIC [19] [µg/mL]	MIC [20] [µg/mL]	also measured
N#CC(C#N)C(=O)c1cn(C2CC2)c2c(Cl)c(N3CCC(N)C3)c(F)cc2c1=O (stereo not drawn) [Example 45, 1-cyclopropyl-6-fluoro-8-chloro-7-(3-aminopyrrolidin-1-yl)-3-(2,2-dicyanoacetyl)-1,4-dihydro-4-oxoquinoline hydrochloride]	0.049	0.195	0.098	1.56	6.25	3.12	3.12	0.195	0.391	6.25	1.56	1.56	0.781	0.195	25	0.781	0.049	0.098	25	0.781	
CCOC(=O)C(C(=O)OCC)C(=O)c1cn(C2CC2)c2c(Cl)c(N3CC[C@H](NC)C3)c(F)cc2c1=O [Example 56, 1-cyclopropyl-6-fluoro-8-chloro-7-(3-3S-methylaminopyrrolidin-1-yl)-3-(2,2-diethoxycarbonylacetyl)-1,4-dihydro-4-oxoquinoline hydrochloride]	0.013	0.013	0.007	0.195	0.781	0.391	0.391	0.013	0.049	0.195	0.098	0.098	0.098	0.013	0.195	0.049	0.007	0.049	0.781	0.049	
CNC1CCN(c2c(F)cc3c(=O)c(C(=O)C[N+](=O)[O-])cn(C4CC4)c3c2Cl)C1 (stereo not drawn) [Example 63, 1-cyclopropyl-6-fluoro-8-chloro-7-(3-methylaminopyrrolidin-1-yl)-3-(2-nitroacetyl)-1,4-dihydro-4-oxoquinoline hydrochloride]	0.007	0.007	0.004	0.098	0.391	0.195	0.195	0.007	0.013	0.098	0.049	0.049	0.049	0.013	0.098	0.025		0.013	0.391	0.025	MIC [17, 24]: < 0.002 µg/mL
CCOC(=O)CC(=O)c1cn(C2CC2)c2cc(N3CCNCC3)c(F)cc2c1=O [Example 19, 1-cyclopropyl-6-fluoro-7-(piperazin-1-yl)-3-(2-ethoxycarbonylacetyl)-1,4-dihydro-4-oxoquinoline hydrochloride]	0.013	0.013	0.391	0.391	0.781	1.56	0.781	0.195	0.049	0.781	1.56	0.781	1.56	0.013	1.56	0.391		0.013	3.12	0.391	MIC [17, 24]: 0.004 µg/mL
CCOC(=O)C(C(=O)OCC)C(=O)c1cn(C2CC2)c2c(Cl)c(N3CCC(NC)C3)c(F)cc2c1=O (stereo not drawn) [Example 57, 1-cyclopropyl-6-fluoro-8-chloro-7-(3-methylaminopyrrolidin-1-yl)-3-(2,2-diethoxycarbonylacetyl)-1,4-dihydro-4-oxoquinoline hydrochloride]	0.049	0.013	0.013	0.049	1.56	0.781	0.391	0.013	0.049	0.098	0.195	0.195	0.195	0.013	0.195	0.025	0.007	0.049	0.781	0.049	
NC1CCN(c2c(F)cc3c(=O)c(C(=O)CC(=O)C(F)(F)F)cn(C4CC4)c3c2Cl)C1 (stereo not drawn) [Example 38, 1-cyclopropyl-6-fluoro-8-chloro-7-(3-aminopyrrolidin-1-yl)-3-(2-trifluoroacetoacetyl)-1,4-dihydro-4-oxoquinoline hydrochloride]	0.025	0.098	0.049	0.195	1.56	0.781	1.56	0.195	0.098	0.781	0.781	0.391	0.391	0.098		0.098	0.195	0.049	1.56	0.391	MIC ([15]; Streptococcus pyogenes, 77A, 18 h): 0.781 µg/mL
NC1CCN(c2c(F)cc3c(=O)c(C(=O)C[N+](=O)[O-])cn(CCF)c3c2F)C1 (stereo not drawn) [Example 31, 1-(2-fluoroethyl)-6,8-difluoro-7-(3-aminopyrrolidin-1-yl)-3-(2-nitroacetyl)-1,4-dihydro-4-oxoquinoline hydrochloride]			0.391	0.195	0.781	0.781	0.781	0.195	0.098	0.781	0.391	0.391	0.391	0.098	1.56	0.391	0.391	0.049	3.12	0.781	MIC ([1]; Klebsiella oxytoca, 1082E, 18 h): 0.195 µg/mL; MIC ([2]; 18 hours, read-out: MIC): 0.198 µg/mL
CCOC(=O)C(C(=O)OCC)C(=O)c1cn(C2CC2)c2c(Cl)c(N3CC[C@@H](N)C3)c(F)cc2c1=O [Example 23, 1-cyclopropyl-6-fluoro-8-chloro-7-(3-3R-aminopyrrolidin-1-yl)-3-(2,2-diethoxycarbonylacetyl)-1,4-dihydro-4-oxoquinoline hydrochloride]	< 0.002	0.013	0.004	0.195	0.781	0.391	0.391	0.004	0.025	0.195	0.049	0.049	0.098	0.004	0.195	0.049		< 0.002	0.781	0.049	MIC [17, 24]: < 0.002 µg/mL
CCOC(=O)C(C#N)C(=O)c1cn(C2CC2)c2c(Cl)c(N3CC4=C(CNC4)C3)c(F)cc2c1=O (stereo not drawn) [Example 41, 1-cyclopropyl-6-fluoro-8-chloro-7-(3,7-diazabicyclo[3.3.0]oct-1,5-en-3-yl)-3-(2-cyano-2-ethoxycarbonylacetyl)-1,4-dihydro-4-oxoquinoline hydrochloride]	0.049	0.391	0.098	3.12	6.25	3.12	3.12	0.195		25	6.25	6.25	1.56	0.098	12.5	1.56	0.049	0.049	25	3.12	MIC [9]: 0.195 µg/mL
